Measured values taken from ChEMBL document CHEMBL1201862, “PubChem BioAssay data set” (2004).
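Five concentrations, 48 hours, 96-well plates. Abbreviation: GI50, concentration required for 50% inhibition of growth.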 Calls of active or inactive are those of the source. Rule as the data show it: active = GI50 up to about 1.1 µM and inactive = higher.

Columns and labels:
Assay in all cases: DTP human tumour cell line panel, 48 h
[1] = test system: HCC 2998
[2] = test system: A549
[3] = test system: MCF7
[4] = test system: NCI-H522
[5] = test system: U-251
[6] = test system: SK-MEL-2
[7] = test system: MDA-N
[8] = test system: MOLT-4
[9] = test system: MDA-MB-231
[10] = test system: Malme-3M
[11] = test system: RXF 393
[12] = test system: ACHN
[13] = test system: HCT-116
[14] = test system: SK-MEL-28
[15] = test system: SNB-75
[16] = test system: OVCAR-8
[17] = test system: NCI-H226
[18] = test system: LOX IMVI
[19] = test system: CCRF-CEM
[20] = test system: SN12C

Measured: GI50

CO/C(C)=N/CCC1=CCCCC1
inactive: [1] 52.5 µM | [2] > 100 µM | [3] > 100 µM | [4] > 100 µM | [5] > 100 µM | [6] > 100 µM | [7] > 100 µM | [8] > 100 µM | [9] > 100 µM | [10] > 100 µM | [11] > 100 µM | [12] > 100 µM | [13] > 100 µM | [14] > 100 µM | [15] > 100 µM | [16] > 100 µM

COc1ccc2c(c1)/C(=C\c1c(Cl)[nH]c3ccccc13)C(=O)N2
inactive: [1] 2.68 µM | [2] 4.99 µM | [17] 16.2 µM | [3] 3.58 µM | [18] 5.09 µM | [4] 3.05 µM | [5] 3.71 µM | [6] 4.21 µM | [7] 1.75 µM | [8] 5.33 µM | [19] 3.21 µM | [9] 4.47 µM | [10] 5.92 µM | [11] 2.88 µM | [12] 5.25 µM | [13] 2.57 µM | [14] 3.39 µM | [16] 11.1 µM | [20] 7.8 µM

CCC(C#N)NCc1cccc(CNC(C#N)CC)c1 (stereo not drawn)
inactive: [1] > 100 µM | [2] > 100 µM | [17] > 100 µM | [3] > 100 µM | [18] > 100 µM | [4] > 100 µM | [5] > 100 µM | [6] > 100 µM | [7] > 100 µM | [8] > 100 µM | [19] > 100 µM | [9] > 100 µM | [10] > 100 µM | [12] > 100 µM | [13] > 100 µM | [14] > 100 µM | [16] > 100 µM | [20] > 100 µM

CCOC(=O)c1sc2nc(SC)nc3c2c1NC(=O)CN3c1ccc(F)cc1
inactive: [1] 34.6 µM | [2] 18.6 µM | [17] 41.7 µM | [3] 87.3 µM | [18] 38.3 µM | [4] 71.9 µM | [5] 43.5 µM | [6] 54.3 µM | [7] 37.9 µM | [8] > 100 µM | [19] 30.1 µM | [9] 26.9 µM | [10] 48.4 µM | [11] 18.8 µM | [12] 21.6 µM | [13] 26.4 µM | [14] 8.18 µM | [16] 22.1 µM | [20] 24.6 µM

NCCN1C(=O)c2ccccc2C1c1ccc(Cl)cc1 (stereo not drawn)
inactive: [1] > 100 µM | [2] > 100 µM | [3] > 100 µM | [18] > 100 µM | [5] > 100 µM | [6] > 100 µM | [7] > 100 µM | [8] > 100 µM | [19] > 100 µM | [9] > 100 µM | [11] > 100 µM | [12] > 100 µM | [13] > 100 µM | [14] > 100 µM | [15] > 100 µM | [16] > 100 µM | [20] > 100 µM

CC[N+](CC)(CC)/C(=N\S(=O)(=O)c1ccc(Cl)cc1)[N-]S(=O)(=O)c1cc(C)c(Cl)cc1S
inactive: [1] 73.5 µM | [17] 32.1 µM | [3] 53.2 µM | [18] > 100 µM | [4] 60.5 µM | [5] 43.1 µM | [6] > 100 µM | [7] > 100 µM | [8] 2.51 µM | [19] 59.3 µM | [9] > 100 µM | [11] 78.2 µM | [12] > 100 µM | [13] 26.5 µM | [14] > 100 µM | [16] > 100 µM

Cc1occc1/C(S)=N\c1ccc(Cl)c(COC(C)(C)C)c1
inactive: [1] 18.2 µM | [2] 19.3 µM | [17] 18.1 µM | [3] 17.1 µM | [18] 17.3 µM | [4] 14.5 µM | [5] 15.6 µM | [6] 15.8 µM | [7] 16.1 µM | [8] 14.4 µM | [19] 23.9 µM | [9] 17.1 µM | [10] 16.5 µM | [11] 14.9 µM | [12] 17.3 µM | [13] 17.9 µM | [14] 16.5 µM | [16] 17.7 µM | [20] 14.4 µM

Cc1ccc2nc(-c3ccc(C(C)(C)C)cc3)oc(=O)c2c1
inactive: [1] 14.6 µM | [2] 14.6 µM | [3] 23.9 µM | [18] 16.4 µM | [4] 11.5 µM | [5] 16.2 µM | [6] 26.7 µM | [7] 22.9 µM | [8] 17 µM | [19] 20.7 µM | [9] 20.6 µM | [10] 21.6 µM | [11] 36.5 µM | [12] 12.3 µM | [13] 17 µM | [14] 27.4 µM | [15] 14.2 µM | [16] 16.9 µM | [20] 38.8 µM
